According to patent US4607010A, “Analytical process and means for measuring protease inhibitor capacity of serum” (priority 1984, dated 1986):

Key:
Chymotrypsin = assay: Fixed time active-site titration of chymotrypsin with DPCF (fluoride electrode); assay type: biochemical; details: for % Active: active concentration as percentage of total mass; for F^-: pH 5.5, two hours, room temperature, mean of duplicates, blank 10.60
Description: (§1) Diphenylcarbamyl fluoride is a specific inactivator for both α-chymotrypsin and trypsin. […] The fixed time pseudoequilibrium can nevertheless be used for the assay of both enzymes since the number of moles of F^- released is stoichiometrically related to the active concentration of either two enzymes.
The reagent solutions were the same as described in Example 1. The assay procedure was however modified in the following manner. Into the plastic beaker, 4.8 ml of assay buffer, […] of either enzyme solution and 100 μl of DPFC solution were added. A blank was prepared in a similar manner by substituting 100 μl of a 2 mM HCl for the enzyme solution. All solutions were left at room temperature for two hours. Following that the F^- concentration was then measured by the fluoride electrode. […].
The difference in the relative-rates of F^- generation with chymotrypsin solution and chymotrypsin solution with serum was used to estimate serum protease inhibitor capacity. The assay buffer and DPCF solution were prepared as described in Example 5. Chymotrypsin solution 2.0 μM corresponding to 1.46 μM active mass was prepared by dilution of stock chymotrypsin solution as described in Example 1.

Trypsin = assay: Fixed time active-site titration of trypsin with DPCF (fluoride electrode); assay type: biochemical; details: for % Active: active concentration as percentage of total mass; for F^-: pH 5.5, two hours, room temperature, mean of duplicates, blank 10.60
Description: as §1
The reagent solutions were the same as described in Example 1. The assay procedure was however modified in the following manner. Into the plastic beaker, 4.8 ml of assay buffer, […] of either enzyme solution and 100 μl of DPFC solution were added. A blank was prepared in a similar manner by substituting 100 μl of a 2 mM HCl for the enzyme solution. All solutions were left at room temperature for two hours. Following that the F^- concentration was then measured by the fluoride electrode. […]

[1] = enzyme concentration 2 μM (mass)
[2] = enzyme concentration 5 μM (mass)
[3] = enzyme concentration 10 μM (mass)
[4] = mean over 2, 5 and 10 μM (mass)

| Substance | active concentration (Chymotrypsin; chymotrypsin solution 2.0 μM (mass)) [µM] | % Active (Chymotrypsin; [1]) [%] | F^- (Chymotrypsin; [1]) [µM] | % Active (Chymotrypsin; [2]) [%] | F^- (Chymotrypsin; [2]) [µM] | % Active (Chymotrypsin; [3]) [%] | F^- (Chymotrypsin; [3]) [µM] | % Active Mean ± Stand. Dev. (Chymotrypsin; [4]) [%] | % Active (Trypsin; [1]) [%] | F^- (Trypsin; [1]) [µM] | % Active (Trypsin; [2]) [%] | F^- (Trypsin; [2]) [µM] | % Active (Trypsin; [3]) [%] | F^- (Trypsin; [3]) [µM] | % Active Mean ± Stand. Dev. (Trypsin; [4]) [%] |
| --- | --- | --- | --- | --- | --- | --- | --- | --- | --- | --- | --- | --- | --- | --- | --- |
| Chymotrypsin | 1.46 | 80.0 | 12.20 | 72.2 | 14.21 | 70.4 | 17.64 | 74.2 ± 4.2 |  |  |  |  |  |  |  |
| Trypsin |  |  |  |  |  |  |  |  | 77.5 | 12.12 | 69.4 | 14.00 | 65.7 | 17.12 | 70.9 ± 4.9 |
